ChEMBL document CHEMBL4800728, “Data for DCP probe JNJ-54119936” (2021)
Activity calls are given as the source filed them. The calls are words filed in the database; no cut-off is given here.

Assays:
[1] = molecular target: Inhibitor of nuclear factor kappa-B kinase subunit beta (Homo sapiens) (UniProt O14920); assay: IKKbeta Invitrogen kinase panel; settings: Compound concentration 10.0 uM
[2] = molecular target: D(2) dopamine receptor (Homo sapiens) (UniProt P14416); assay: D2S (h) CEREP screen; settings: Compound concentration 1.0 uM
[3] = molecular target: Serine/threonine-protein kinase PLK3 (Homo sapiens) (UniProt Q9H4B4); assay: Plk3 Invitrogen kinase panel; settings: Compound concentration 10.0 uM
[4] = molecular target: Nuclear receptor ROR-gamma (Homo sapiens, UniProt P51449); assay: Human whole blood assay; format: tissue-based; parameters: compound concentration 10 uM
[5] = molecular target: 5-hydroxytryptamine receptor 7 (Homo sapiens) (UniProt P34969); settings: Compound concentration 10.0 uM
[6] = molecular target: Aurora kinase B (Homo sapiens) (UniProt Q96GD4); assay: Aurora_B Invitrogen kinase panel; settings: Compound concentration 10.0 uM
[7] = molecular target: Alpha-1B adrenergic receptor (Homo sapiens) (UniProt P35368); settings: Compound concentration 10.0 uM
[8] = molecular target: T1, Glucocorticoid receptor (Homo sapiens) (UniProt P04150); assay: GR Indigo Bioscience nuclear receptor screen
T1 sequence (whole entry): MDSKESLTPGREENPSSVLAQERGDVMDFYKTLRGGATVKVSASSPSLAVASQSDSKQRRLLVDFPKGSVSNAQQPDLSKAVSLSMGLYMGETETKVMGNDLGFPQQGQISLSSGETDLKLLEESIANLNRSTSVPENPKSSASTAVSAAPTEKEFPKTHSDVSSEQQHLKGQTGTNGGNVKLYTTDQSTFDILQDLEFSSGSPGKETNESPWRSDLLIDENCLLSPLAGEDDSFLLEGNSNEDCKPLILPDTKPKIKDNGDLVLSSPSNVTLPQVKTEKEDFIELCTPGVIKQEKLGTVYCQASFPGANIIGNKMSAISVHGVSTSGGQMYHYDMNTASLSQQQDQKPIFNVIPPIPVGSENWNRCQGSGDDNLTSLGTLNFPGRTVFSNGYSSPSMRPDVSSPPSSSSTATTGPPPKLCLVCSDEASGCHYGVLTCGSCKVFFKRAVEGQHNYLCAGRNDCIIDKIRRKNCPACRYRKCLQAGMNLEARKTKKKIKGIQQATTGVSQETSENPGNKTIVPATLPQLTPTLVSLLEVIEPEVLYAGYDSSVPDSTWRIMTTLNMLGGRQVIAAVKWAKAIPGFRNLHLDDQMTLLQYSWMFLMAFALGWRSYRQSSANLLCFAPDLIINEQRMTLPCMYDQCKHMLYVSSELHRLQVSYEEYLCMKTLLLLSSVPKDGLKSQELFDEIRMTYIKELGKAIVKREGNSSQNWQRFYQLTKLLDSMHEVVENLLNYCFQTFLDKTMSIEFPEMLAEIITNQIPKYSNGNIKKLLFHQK

[9] = molecular target: Histamine H3 receptor (Homo sapiens) (UniProt Q9Y5N1); settings: Compound concentration 10.0 uM
[10] = molecular target: Mu-type opioid receptor (Homo sapiens) (UniProt P35372); settings: Compound concentration 10.0 uM
[11] = molecular target: RAC-alpha serine/threonine-protein kinase (Homo sapiens) (UniProt P31749); assay: PKBalpha Invitrogen kinase panel; settings: Compound concentration 10.0 uM
[12] = molecular target: Calcium/calmodulin-dependent protein kinase type 1D (Homo sapiens) (UniProt Q8IU85); assay: CaMKIdelta Invitrogen kinase panel; settings: Compound concentration 10.0 uM
[13] = molecular target: Cyclin-dependent kinase 1/cyclin B (Homo sapiens) (UniProt P06493+P14635+Q8WWL7+O95067); assay: CDK1/cyclinB Invitrogen kinase panel; format: protein-complex assay; settings: Compound concentration 10.0 uM
[14] = molecular target: T2, Muscarinic acetylcholine receptor M1 (Homo sapiens) (UniProt P11229); assay: M1 (h) CEREP screen
T2 sequence (whole entry): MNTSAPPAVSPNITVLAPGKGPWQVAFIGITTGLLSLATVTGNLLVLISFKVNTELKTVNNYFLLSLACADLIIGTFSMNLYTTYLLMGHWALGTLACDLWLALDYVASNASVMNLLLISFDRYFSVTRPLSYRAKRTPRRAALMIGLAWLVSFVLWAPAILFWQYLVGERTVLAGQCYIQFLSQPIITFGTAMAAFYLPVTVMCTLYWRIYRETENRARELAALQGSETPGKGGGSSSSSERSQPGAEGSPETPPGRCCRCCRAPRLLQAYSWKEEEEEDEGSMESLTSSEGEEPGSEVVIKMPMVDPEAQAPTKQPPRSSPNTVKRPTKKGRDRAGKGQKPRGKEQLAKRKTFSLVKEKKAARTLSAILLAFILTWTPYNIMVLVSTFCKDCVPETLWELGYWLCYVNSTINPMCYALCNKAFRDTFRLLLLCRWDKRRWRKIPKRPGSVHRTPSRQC

[15] = molecular target: Tyrosine-protein kinase Blk (Homo sapiens) (UniProt P51451); assay: Blk Invitrogen kinase panel; settings: Compound concentration 10.0 uM
[16] = molecular target: 5-hydroxytryptamine receptor 1B (Homo sapiens) (UniProt P28222); settings: Compound concentration 10.0 uM
[17] = molecular target: Sodium-dependent dopamine transporter (Homo sapiens) (UniProt Q01959); assay: dopamine transporter (h) CEREP screen
[18] = molecular target: 5-hydroxytryptamine receptor 1D (Homo sapiens) (UniProt P28221); settings: Compound concentration 10.0 uM
[19] = molecular target: T3, CAR (nuclear receptor subfamily 1 group I member 3) (Homo sapiens, UniProt Q14994); assay: (§1) CAR In-house nuclear receptor screen; settings: human; compound concentration 3 uM
T3 sequence (Q14994 whole entry): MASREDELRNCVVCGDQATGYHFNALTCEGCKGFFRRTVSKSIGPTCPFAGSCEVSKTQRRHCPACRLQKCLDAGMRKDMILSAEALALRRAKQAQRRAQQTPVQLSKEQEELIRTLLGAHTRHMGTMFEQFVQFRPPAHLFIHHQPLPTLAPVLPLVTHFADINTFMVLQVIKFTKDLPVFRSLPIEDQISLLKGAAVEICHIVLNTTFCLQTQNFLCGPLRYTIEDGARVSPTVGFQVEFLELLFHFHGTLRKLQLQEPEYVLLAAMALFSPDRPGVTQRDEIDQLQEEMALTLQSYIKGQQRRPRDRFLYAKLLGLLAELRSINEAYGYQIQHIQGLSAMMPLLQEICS

[20] = molecular target: Nuclear receptor subfamily 1 group I member 3 (Homo sapiens, UniProt Q14994); assay: as §1
[21] = molecular target: Mitogen-activated protein kinase 12 (Homo sapiens) (UniProt P53778); assay: p38gamma Invitrogen kinase panel; settings: Compound concentration 10.0 uM
[22] = molecular target: Proto-oncogene tyrosine-protein kinase Src (Homo sapiens) (UniProt P12931); assay: SRC Invitrogen kinase panel; settings: Compound concentration 10.0 uM
[23] = molecular target: GABA-A receptor; anion channel (Homo sapiens) (UniProt P14867+P47870+P18507+P28472+P48169+Q99928+Q9UN88+P34903+O00591+O14764+Q8N1C3+P18505+P78334+P47869+P31644+Q16445); assay: Cl- channel CEREP screen; format: protein-complex assay
[24] = molecular target: Casein kinase II subunit alpha' (Homo sapiens) (UniProt P19784); assay: CK2alpha2 Invitrogen kinase panel; settings: Compound concentration 10.0 uM

Chain of Sodium-dependent dopamine transporter (Homo sapiens) (Q01959 whole entry): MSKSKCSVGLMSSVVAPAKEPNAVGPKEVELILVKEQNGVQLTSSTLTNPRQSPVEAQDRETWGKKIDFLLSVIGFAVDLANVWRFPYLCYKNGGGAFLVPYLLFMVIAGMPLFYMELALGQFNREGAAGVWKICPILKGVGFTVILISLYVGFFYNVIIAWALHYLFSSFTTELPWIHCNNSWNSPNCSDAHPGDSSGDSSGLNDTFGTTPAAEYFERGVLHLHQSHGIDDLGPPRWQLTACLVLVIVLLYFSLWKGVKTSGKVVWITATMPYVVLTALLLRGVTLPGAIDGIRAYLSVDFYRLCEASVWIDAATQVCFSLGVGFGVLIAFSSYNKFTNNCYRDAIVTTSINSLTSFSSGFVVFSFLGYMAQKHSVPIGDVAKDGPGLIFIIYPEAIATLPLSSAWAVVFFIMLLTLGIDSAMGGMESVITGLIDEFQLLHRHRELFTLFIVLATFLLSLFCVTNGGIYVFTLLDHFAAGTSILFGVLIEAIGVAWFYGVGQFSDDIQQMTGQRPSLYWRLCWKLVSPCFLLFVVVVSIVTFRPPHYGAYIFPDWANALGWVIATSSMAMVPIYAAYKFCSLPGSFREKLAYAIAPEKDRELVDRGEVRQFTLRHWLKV
Chain of Mu-type opioid receptor (Homo sapiens) (P35372 whole entry): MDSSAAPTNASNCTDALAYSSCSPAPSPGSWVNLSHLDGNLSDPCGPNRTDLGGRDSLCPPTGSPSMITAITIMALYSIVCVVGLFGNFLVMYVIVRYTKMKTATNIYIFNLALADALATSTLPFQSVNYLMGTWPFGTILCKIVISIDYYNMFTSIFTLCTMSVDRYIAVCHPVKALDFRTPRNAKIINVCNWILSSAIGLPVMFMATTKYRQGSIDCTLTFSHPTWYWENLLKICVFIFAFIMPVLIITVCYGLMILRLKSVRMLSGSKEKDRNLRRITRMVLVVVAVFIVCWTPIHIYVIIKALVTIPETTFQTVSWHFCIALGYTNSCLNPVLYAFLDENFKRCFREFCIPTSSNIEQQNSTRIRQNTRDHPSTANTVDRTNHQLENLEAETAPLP
Chain of Histamine H3 receptor (Homo sapiens) (Q9Y5N1 whole entry): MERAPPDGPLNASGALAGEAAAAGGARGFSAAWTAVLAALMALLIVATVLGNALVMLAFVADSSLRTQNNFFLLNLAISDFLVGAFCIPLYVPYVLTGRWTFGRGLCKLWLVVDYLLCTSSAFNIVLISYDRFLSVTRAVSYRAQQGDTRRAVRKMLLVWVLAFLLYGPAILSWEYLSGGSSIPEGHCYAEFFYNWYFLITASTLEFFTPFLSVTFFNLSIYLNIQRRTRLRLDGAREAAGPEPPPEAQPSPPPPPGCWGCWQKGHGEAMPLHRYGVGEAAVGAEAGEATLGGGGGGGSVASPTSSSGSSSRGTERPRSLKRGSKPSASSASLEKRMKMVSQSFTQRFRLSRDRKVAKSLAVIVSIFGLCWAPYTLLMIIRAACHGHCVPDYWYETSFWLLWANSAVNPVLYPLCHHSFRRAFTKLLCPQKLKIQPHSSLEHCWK
Chain of Tyrosine-protein kinase Blk (Homo sapiens) (P51451 2-505 limits assumed): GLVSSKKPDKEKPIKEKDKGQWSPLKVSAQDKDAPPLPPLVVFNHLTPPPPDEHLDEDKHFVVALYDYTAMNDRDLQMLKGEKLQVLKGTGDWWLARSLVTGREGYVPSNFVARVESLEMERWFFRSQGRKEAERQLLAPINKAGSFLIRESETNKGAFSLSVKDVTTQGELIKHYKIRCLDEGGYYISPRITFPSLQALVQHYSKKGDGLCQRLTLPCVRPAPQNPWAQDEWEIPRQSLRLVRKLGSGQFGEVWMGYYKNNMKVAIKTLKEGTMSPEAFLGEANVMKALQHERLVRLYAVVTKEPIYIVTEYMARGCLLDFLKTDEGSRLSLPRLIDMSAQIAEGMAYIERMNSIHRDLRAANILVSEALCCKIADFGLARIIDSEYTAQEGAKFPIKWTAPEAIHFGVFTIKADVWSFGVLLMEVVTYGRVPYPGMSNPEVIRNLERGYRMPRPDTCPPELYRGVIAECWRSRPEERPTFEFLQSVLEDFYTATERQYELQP
Chain of RAC-alpha serine/threonine-protein kinase (Homo sapiens) (P31749 whole entry): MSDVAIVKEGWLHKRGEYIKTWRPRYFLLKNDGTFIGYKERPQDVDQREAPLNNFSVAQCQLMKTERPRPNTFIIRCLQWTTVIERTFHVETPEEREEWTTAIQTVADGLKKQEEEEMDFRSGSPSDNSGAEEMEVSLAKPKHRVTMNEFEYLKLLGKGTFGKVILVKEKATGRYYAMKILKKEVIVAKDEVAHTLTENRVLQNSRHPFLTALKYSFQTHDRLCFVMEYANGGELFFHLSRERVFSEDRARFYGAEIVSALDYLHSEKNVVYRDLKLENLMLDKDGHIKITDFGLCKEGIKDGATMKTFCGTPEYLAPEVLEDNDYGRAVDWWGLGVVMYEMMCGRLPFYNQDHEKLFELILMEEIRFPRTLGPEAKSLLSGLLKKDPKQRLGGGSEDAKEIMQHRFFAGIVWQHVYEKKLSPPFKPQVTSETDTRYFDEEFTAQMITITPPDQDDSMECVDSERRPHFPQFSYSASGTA
Chain of Proto-oncogene tyrosine-protein kinase Src (Homo sapiens) (P12931 2-536 limits assumed): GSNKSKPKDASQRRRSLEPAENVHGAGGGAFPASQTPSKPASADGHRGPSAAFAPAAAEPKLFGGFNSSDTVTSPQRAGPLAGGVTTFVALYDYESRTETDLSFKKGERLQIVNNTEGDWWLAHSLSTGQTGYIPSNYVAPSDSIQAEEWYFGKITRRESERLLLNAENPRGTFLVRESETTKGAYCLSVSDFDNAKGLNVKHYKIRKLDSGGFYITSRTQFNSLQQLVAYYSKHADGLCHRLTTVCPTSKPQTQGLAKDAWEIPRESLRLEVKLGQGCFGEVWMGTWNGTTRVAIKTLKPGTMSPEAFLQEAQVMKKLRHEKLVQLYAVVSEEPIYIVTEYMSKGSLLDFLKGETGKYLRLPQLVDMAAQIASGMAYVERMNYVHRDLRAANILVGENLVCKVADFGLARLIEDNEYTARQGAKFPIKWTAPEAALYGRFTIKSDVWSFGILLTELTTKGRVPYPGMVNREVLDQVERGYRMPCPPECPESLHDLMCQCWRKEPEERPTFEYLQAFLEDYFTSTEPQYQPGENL
Chain of Nuclear receptor ROR-gamma (P51449 whole entry): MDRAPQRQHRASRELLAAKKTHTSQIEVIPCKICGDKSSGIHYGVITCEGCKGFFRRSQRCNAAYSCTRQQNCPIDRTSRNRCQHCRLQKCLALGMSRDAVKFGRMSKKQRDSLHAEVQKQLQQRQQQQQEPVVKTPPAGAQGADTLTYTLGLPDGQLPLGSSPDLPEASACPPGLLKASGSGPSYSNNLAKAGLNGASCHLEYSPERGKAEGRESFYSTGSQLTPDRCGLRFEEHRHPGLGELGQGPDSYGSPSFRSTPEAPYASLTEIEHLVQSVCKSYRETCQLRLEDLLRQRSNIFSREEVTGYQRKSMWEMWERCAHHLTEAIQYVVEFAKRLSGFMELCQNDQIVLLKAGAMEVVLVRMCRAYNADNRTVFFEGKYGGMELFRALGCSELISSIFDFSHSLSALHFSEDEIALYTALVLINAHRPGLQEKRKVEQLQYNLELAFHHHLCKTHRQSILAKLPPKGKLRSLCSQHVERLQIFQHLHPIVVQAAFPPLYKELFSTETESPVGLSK
Chain of Alpha-1B adrenergic receptor (Homo sapiens) (P35368 whole entry): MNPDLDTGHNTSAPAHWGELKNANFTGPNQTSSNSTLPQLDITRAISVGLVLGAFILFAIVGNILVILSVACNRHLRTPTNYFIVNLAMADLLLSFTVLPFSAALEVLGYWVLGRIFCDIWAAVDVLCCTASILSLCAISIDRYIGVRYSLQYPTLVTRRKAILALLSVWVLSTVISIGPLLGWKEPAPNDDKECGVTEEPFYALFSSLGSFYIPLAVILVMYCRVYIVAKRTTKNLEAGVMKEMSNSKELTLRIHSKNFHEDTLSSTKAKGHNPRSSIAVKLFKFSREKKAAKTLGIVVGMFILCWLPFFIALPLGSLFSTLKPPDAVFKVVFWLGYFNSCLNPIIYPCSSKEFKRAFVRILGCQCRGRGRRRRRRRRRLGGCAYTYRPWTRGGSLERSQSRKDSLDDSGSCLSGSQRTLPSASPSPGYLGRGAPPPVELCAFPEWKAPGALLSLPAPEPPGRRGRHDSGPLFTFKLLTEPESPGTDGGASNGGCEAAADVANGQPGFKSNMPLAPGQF
Chain of 5-hydroxytryptamine receptor 1D (Homo sapiens) (P28221 whole entry): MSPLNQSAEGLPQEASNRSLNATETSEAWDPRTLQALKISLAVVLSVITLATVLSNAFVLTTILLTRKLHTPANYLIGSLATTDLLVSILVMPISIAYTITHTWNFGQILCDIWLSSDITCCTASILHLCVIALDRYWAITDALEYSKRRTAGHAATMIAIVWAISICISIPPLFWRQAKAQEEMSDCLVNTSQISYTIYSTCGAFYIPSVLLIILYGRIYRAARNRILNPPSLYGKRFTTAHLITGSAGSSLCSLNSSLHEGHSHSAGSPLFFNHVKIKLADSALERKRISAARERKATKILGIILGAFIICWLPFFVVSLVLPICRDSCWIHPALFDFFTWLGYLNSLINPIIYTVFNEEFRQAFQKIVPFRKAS
Chain of 5-hydroxytryptamine receptor 7 (Homo sapiens) (P34969 whole entry): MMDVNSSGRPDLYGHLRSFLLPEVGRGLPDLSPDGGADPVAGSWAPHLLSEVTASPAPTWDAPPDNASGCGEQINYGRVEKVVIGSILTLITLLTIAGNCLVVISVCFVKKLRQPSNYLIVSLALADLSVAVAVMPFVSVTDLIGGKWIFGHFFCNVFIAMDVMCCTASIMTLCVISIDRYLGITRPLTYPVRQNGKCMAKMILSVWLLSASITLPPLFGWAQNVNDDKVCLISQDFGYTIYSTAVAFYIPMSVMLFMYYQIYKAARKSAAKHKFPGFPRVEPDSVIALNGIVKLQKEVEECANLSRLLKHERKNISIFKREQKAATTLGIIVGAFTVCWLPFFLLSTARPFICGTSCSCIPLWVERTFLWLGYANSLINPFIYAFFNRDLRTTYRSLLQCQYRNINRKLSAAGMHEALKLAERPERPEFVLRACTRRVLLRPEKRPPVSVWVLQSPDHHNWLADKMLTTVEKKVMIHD

inhibition [1]: 6%
inhibition [2]: 10%
inhibition [3]: 3%
IC50 [4]: 0.332 µM (active)
inhibition [5]: -2.29%
inhibition [6]: 21%
inhibition [7]: -4.69%
inhibition ([8]; Compound concentration 0.3 uM): 4.11%
inhibition ([8]; Compound concentration 1.0 uM): 2.23%
inhibition ([8]; Compound concentration 3.0 uM): 12.6%
inhibition [9]: 0.46%
inhibition [10]: 25.6%
inhibition [11]: -5%
inhibition [12]: 7%
inhibition [13]: 0%
inhibition ([14]; Compound concentration 1.0 uM): 12%
inhibition ([14]; Compound concentration 10.0 uM): 21%
inhibition [15]: 0%
inhibition [16]: 8.87%
inhibition ([17]; Compound concentration 1.0 uM): 18%
inhibition ([17]; Compound concentration 10.0 uM): 30%
inhibition [18]: 5.9%
inhibition at 3 µM [19]: 31.2% (not active)
IC50 [20]: 8.4 µM
inhibition [21]: 2%
inhibition [22]: 4%
inhibition ([23]; Compound concentration 1.0 uM): 21%
inhibition ([23]; Compound concentration 10.0 uM): 44%
inhibition [24]: 4%
SMILES: COc1nc2ccc([C@@](O)(c3ccccc3)C3CCN(C(C)=O)CC3)cc2c(Cl)c1Cc1ccc(-n2cccn2)cc1 [JNJ-54119936]
